Measured values taken from article PMC2765255 (Journal of medicinal chemistry, 2009).
Where a name gives a salt, the structure may show the parent alone.

Legend:
[1] = target: S. aureus CrtM (dehydrosqualene synthase) (Staphylococcus aureus, UniProt A9JQL9); experiment: CrtM enzyme inhibition assay; assay type: biochemical
[2] = target: human squalene synthase (SQS) (Homo sapiens, UniProt P37268); assay type: biochemical; conditions: experimental data
[3] = tested on: STX biosynthesis in S. aureus; experiment: Staphyloxanthin biosynthesis inhibition assay; assay type: cell-based; conditions: Staphylococcus aureus, 72 h, read-out: staphyloxanthin IC50
[4] = tested on: S. aureus; conditions: mice treated with 1, compared to control group; cited from earlier work

human squalene synthase (SQS), sequence (P37268 31-370): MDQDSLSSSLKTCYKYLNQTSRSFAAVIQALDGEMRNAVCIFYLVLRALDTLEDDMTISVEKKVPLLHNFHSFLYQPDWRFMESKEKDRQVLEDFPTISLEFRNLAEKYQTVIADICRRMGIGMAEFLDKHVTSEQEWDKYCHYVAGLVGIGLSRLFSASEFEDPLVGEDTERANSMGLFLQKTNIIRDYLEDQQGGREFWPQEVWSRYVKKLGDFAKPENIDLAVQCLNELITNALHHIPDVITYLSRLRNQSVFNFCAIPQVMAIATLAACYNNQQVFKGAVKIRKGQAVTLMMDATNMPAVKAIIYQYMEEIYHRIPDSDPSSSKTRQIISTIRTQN
S. aureus CrtM (dehydrosqualene synthase), sequence (A9JQL9 whole entry): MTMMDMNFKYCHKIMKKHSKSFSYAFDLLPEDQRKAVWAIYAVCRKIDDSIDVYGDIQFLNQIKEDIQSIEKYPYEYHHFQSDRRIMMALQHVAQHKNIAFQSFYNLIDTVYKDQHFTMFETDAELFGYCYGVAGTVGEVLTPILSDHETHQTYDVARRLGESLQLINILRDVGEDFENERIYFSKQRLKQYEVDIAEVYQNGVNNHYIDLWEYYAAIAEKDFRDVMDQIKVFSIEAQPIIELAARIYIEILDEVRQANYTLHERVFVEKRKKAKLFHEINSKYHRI

O=P([O-])([O-])C(CCCc1cccc(Oc2ccc(F)cc2)c1)S(=O)(=O)[O-].[K+].[K+].[K+] (stereo not shown) [Compound 5, 1-Phosphono-4-[3-(4-fluorophenoxy)phenyl]butylsulfonic Acid Tripotassium Salt]
as active as 1 in CrtM inhibition [1]: ~4 ×

O=P([O-])([O-])C(Cc1cccc(Oc2ccccc2)c1)S(=O)(=O)[O-].[K+].[K+].[K+] (stereo not shown) [Compound 14, 1-Phosphono-2-(3-phenoxyphenyl)ethylsulfonic Acid Tripotassium Salt]
pIC50(CrtM) – pIC50(hSQS) [2]: −2.66 M

O=P([O-])([O-])C(CCCc1ccc(-c2ccc(C(F)(F)F)cc2)cc1)P(=O)([O-])[O-].[K+].[K+].[K+].[K+] [Compound 3]
IC50 [1]: 0.182 µM
pIC50(CrtM) – pIC50(hSQS) [2]: −1.86 M

O=P(O)(O)C(CCCc1cccc(Oc2ccc(O)cc2)c1)S(=O)(=O)O (stereo not shown) [Compound 27, 1-Phosphono-4-[3-(4-hydroxyphenoxy)phenyl]butylsulfonic Acid Tripotassium Salt]
IC50 [3]: 6.8 µM

O=P([O-])([O-])C(CCc1cccc(Oc2ccccc2)c1)S(=O)(=O)[O-].[K+].[K+].[K+] (stereo not shown) [Compound 15, 1-Phosphono-3-(3-phenoxyphenyl)propylsulfonic Acid Tripotassium Salt]
pIC50(CrtM) – pIC50(hSQS) [2]: −2.96 M

O=P([O-])([O-])[C@H](CCCc1cccc(Oc2ccccc2)c1)S(=O)(=O)[O-].[K+].[K+].[K+] [Compound (S)-1, (1S)-1-Phosphono-4-(3-phenoxyphenyl)butylsulfonic Acid Tripotassium Salt]
more active than its (R)-enantiomer in CrtM inhibition ([1]; fold): ~30 ×

CCCc1ccc(Oc2cccc(CCCC(P(=O)([O-])[O-])S(=O)(=O)[O-])c2)cc1.[K+].[K+].[K+] (stereo not shown) [Compound 6, 1-Phosphono-4-[3-(4-propylphenoxy)phenyl]butylsulfonic Acid Tripotassium Salt]
as active as 1 in CrtM inhibition [1]: ~4 ×

O=P([O-])([O-])C(CCCc1cccc(Oc2ccccc2)c1)S(=O)(=O)[O-].[K+].[K+].[K+] (stereo not shown) [Compound 1, 1-Phosphono-4-(3-phenoxyphenyl)butylsulfonic Acid Tripotassium Salt]
bacterial counts in kidneys reduced [4]: 98%

O=P([O-])([O-])C(CCCc1cccc(Oc2ccccc2Cc2ccccc2)c1)S(=O)(=O)[O-].[K+].[K+].[K+] (stereo not shown) [Compound 8, 1-Phosphono-4-[3-(2-benzylphenoxy)phenyl]butylsulfonic Acid Tripotassium Salt]
less active than 1 in CrtM inhibition [1]: ≈ 5 ×
